Data published in ChEMBL document CHEMBL5055669, “Development of Potent and Selective Agonists for Complement C5a Receptor 1 with In Vivo Activity” (J Med Chem, 2021).
The source made the active and inactive calls. No cut-off for these calls is given here. Square brackets hold non-standard residues; d marks the D form. Peptide text beside a SMILES is read from it. Nva = CCC[C@H](N)C(=O)O; Abu = CC[C@H](N)C(=O)O

Key:
Homo sapiens = species: Homo sapiens; assay: Selectivity ratio of EC50 for agonist activity at human C3aR expressed in CHO cells to EC50 for agonist activity at human C5aR1 expressed in CHO cells; format: cell-based
[1] = target: T1, C5a anaphylatoxin chemotactic receptor 1 (Homo sapiens, UniProt P21730); assay: Agonist activity at human C5aR1 expressed in CHO cells assessed as induction of ERK1/2 phosphorylation at Thr202/Tyr204 residues incubated for 10 mins by AlphaLISA assay; format: functional, cell-based
T1 sequence (P21730 whole entry): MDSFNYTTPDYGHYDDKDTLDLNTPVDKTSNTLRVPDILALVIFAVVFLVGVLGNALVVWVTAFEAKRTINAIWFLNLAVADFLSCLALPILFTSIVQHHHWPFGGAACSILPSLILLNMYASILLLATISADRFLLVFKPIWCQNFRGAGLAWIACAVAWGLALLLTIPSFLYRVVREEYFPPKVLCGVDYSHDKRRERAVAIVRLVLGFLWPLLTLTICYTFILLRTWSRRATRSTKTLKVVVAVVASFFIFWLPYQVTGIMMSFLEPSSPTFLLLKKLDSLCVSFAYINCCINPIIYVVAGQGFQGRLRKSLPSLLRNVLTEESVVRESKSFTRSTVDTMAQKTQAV

[2] = target: T2, C3a anaphylatoxin chemotactic receptor (Homo sapiens, UniProt Q16581); assay: Agonist activity at human C3aR expressed in CHO cells assessed as induction of ERK1/2 phosphorylation at Thr202/Tyr204 residues incubated for 10 mins by AlphaLISA assay; format: functional, cell-based
T2 sequence (Q16581 whole entry): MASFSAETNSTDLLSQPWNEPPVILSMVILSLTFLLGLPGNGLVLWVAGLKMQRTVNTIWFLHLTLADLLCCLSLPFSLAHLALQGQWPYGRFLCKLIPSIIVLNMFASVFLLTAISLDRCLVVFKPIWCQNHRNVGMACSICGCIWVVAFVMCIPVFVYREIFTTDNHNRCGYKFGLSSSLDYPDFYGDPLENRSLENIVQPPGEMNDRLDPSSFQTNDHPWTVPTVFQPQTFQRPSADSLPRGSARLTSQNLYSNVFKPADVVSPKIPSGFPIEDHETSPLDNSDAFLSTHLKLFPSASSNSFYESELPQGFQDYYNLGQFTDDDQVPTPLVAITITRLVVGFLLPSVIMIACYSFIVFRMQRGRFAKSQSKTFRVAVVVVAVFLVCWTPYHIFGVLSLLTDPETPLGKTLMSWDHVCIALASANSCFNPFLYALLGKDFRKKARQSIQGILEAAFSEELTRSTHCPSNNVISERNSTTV

[3] = target: T3, C5a anaphylatoxin chemotactic receptor 1 (Mus musculus) (UniProt P30993); assay: Agonist activity at C5aR1 in mouse RAW264.7 cells assessed as induction of ERK1/2 phosphorylation at Thr202/Tyr204 residues at up to 100 uM incubated for 10 mins in presence of JPE1375 by AlphaLISA assay; format: functional, cell-based
T3 sequence (whole entry): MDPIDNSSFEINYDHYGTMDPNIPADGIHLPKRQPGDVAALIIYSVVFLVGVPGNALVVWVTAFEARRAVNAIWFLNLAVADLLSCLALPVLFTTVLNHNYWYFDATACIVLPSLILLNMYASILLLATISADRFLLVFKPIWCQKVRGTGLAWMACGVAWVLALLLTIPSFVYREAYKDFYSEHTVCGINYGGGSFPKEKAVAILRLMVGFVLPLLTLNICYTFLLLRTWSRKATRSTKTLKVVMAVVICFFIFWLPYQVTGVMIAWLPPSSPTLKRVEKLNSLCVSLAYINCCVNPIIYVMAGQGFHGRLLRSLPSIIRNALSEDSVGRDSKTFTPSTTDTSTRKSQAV

[4] = target: T4, C5a anaphylatoxin chemotactic receptor 1 (Mus musculus, UniProt P30993); assay: Agonist activity at C5aR1 in mouse RAW264.7 cells assessed as induction of ERK1/2 phosphorylation at Thr202/Tyr204 residues incubated for 10 mins by AlphaLISA assay; format: functional, cell-based
T4 sequence (P30993 whole entry): T3 sequence (whole entry)

[5] = target: T3, C5a anaphylatoxin chemotactic receptor 1 (Mus musculus); assay: Agonist activity at C5aR1 in mouse RAW264.7 cells assessed as induction of ERK1/2 phosphorylation at Thr202/Tyr204 residues at up to 100 uM incubated for 10 mins by AlphaLISA assay; format: functional, cell-based
MDM [6] = assay: Antiinflammatory activity in human MDM cells assessed as suppression of LPS-induced TNFalpha production at 1 uM measured after 24 hrs by ELISA; format: functional, cell-based
Mus musculus = assay: Antiinflammatory activity in C57BL/6J mouse assessed as polymorphonuclear leucocyte mobilization at 50 ug/kg, iv measured after 30 mins by hemacolor-staining based microscopic analysis relative to control; format: functional; conditions: dose 50 µg/kg, 0.5 h
[7] = Ratio of EC50 for agonist activity at C5aR1 in mouse RAW264.7 cells to EC50 for agonist activity at human C5aR1 expressed in CHO cells; format: cell-based
MDM [8] = assay: Antiinflammatory activity in human MDM cells assessed as suppression of LPS-induced IL-6 production at 1 uM measured after 24 hrs by ELISA; format: functional, cell-based

Row | SMILES | Ratio EC50 (Homo sapiens) | EC50 [1] | EC50 ([2]; read-out: pEC50 (converted)) | further results
1 | CC(C)C[C@H](NC(=O)[C@H](C)NC(=O)[C@@H](NC(=O)[C@@H]1CCCN1C(=O)[C@H](CCCCN)NC(=O)[C@@H](N)Cc1ccccc1)[C@@H](C)O)C(=O)N[C@H](C)C(=O)N[C@@H](CCCNC(=N)N)C(=O)O | 3.7 | 10.4 nM | 37.1 nM | 
2 | CC(C)C[C@H](NC(=O)[C@H](C)NC(=O)[C@H](CC(C)C)NC(=O)[C@@H]1CCCN1C(=O)[C@H](CCCCN)NC(=O)[C@@H](N)Cc1ccccc1)C(=O)N[C@H](C)C(=O)N[C@@H](CCCNC(=N)N)C(=O)O | 109 | 4.35 nM | 435 nM | 
3 | CC(C)C[C@H](NC(=O)[C@@H]1CCCN1C(=O)[C@H](CC(C)C)NC(=O)[C@@H]1CCCN1C(=O)[C@H](CCCCN)NC(=O)[C@H](C)N)C(=O)N[C@H](C)C(=O)N[C@@H](CCCNC(=N)N)C(=O)O | 0.033 | 19100 nM | 631 nM | 
4 | CC(C)C[C@H](NC(=O)[C@@H]1CCCN1C(=O)[C@H](CC(C)C)NC(=O)[C@H](C)NC(=O)[C@H](CCCCN)NC(=O)[C@@H](N)Cc1ccccc1)C(=O)N[C@H](C)C(=O)N[C@@H](CCCNC(=N)N)C(=O)O | 3.26 | 19.5 nM | 61.9 nM | 
5 | CCC[C@H](NC(=O)[C@H](C)NC(=O)[C@H](CC(C)C)NC(=O)[C@@H]1CCCN1C(=O)[C@H](CCCCN)NC(=O)[C@H](Cc1ccccc1)NC(C)=O)C(=O)N[C@@H](C)C(=O)N[C@@H](CCCNC(=N)N)C(=O)O (Ac-FKPLA[Nva]AR-OH) |  |  | 752 nM | 
6 | CC(=O)N[C@@H](Cc1ccccc1)C(=O)N[C@H]1CCCCNC(=O)[C@H](CCCNC(=N)N)NC(=O)[C@@H](C)NC(=O)[C@H](C)NC(=O)[C@H](C)NC(=O)[C@H](CC(C)C)NC(=O)[C@@H]2CCCN2C1=O |  |  |  | EC50 ([2]; read-out: EC50): > 100000 nM
7 | CC(C)C[C@H](NC(=O)[C@H](C)NC(=O)[C@@H](NC(=O)[C@@H]1CCCN1C(=O)[C@H](CCCNC(=N)N)NC(=O)[C@@H](N)Cc1ccccc1)[C@@H](C)O)C(=O)N[C@H](C)C(=O)N[C@@H](CCCNC(=N)N)C(=O)O | 0.4 | 24.4 nM | 9.04 nM | 
8 | CC(C)C[C@H](NC(=O)[C@@H]1CCCN1C(=O)[C@H](C)NC(=O)[C@@H]1CCCN1C(=O)[C@H](CCCCN)NC(=O)[C@@H](N)Cc1ccccc1)C(=O)N[C@H](C)C(=O)N[C@@H](CCCNC(=N)N)C(=O)O | 0.25 | 44.4 nM | 11 nM | 
9 | CC(C)C[C@H](NC(=O)[C@@H]1CCCN1C(=O)[C@H](CC(C)C)NC(=O)[C@@H]1CCCN1C(=O)[C@H](CCCCN)NC(=O)[C@@H](N)Cc1ccccc1)C(=O)N[C@H](C)C(=O)N[C@@H](CCCNC(=N)N)C(=O)O (H-FKPLPL[dA]R-OH) |  |  | 129 nM | 
10 | CC(=O)N[C@@H](Cc1ccccc1)C(=O)N[C@@H](CCCCN)C(=O)N1CCC[C@H]1C(=O)N[C@@H](CC(C)C)C(=O)N[C@@H](C)C(=O)N[C@@H](C)C(=O)N[C@H](C)C(=O)N[C@@H](CCCNC(=N)N)C(=O)O (Ac-FKPLAA[dA]R-OH) |  |  |  | Activity [3]: inactive; EC50 [4]: 22900 nM
11 | CC(C)C[C@H](NC(=O)[C@H](C)NC(=O)[C@H](CC(C)C)NC(=O)[C@@H]1CCCN1C(=O)[C@H](CCCCN)NC(=O)[C@H](C)N)C(=O)N[C@H](C)C(=O)N[C@@H](CCCNC(=N)N)C(=O)O | 0.4 | 1430 nM | 532 nM | 
12 | CC(C)C[C@H](NC(=O)[C@@H]1CCCN1C(=O)[C@H](CCCCN)NC(=O)[C@@H](N)Cc1ccccc1)C(=O)N1CCC[C@H]1C(=O)N[C@@H](C)C(=O)N[C@H](C)C(=O)N[C@@H](CCCNC(=N)N)C(=O)O |  |  | 54800 nM | 
13 | CC(C)C[C@H](NC(=O)[C@@H]1CCCN1C(=O)[C@H](CC(C)C)NC(=O)[C@@H]1CCCN1C(=O)[C@H](C)NC(=O)[C@@H](N)Cc1ccccc1)C(=O)N[C@H](C)C(=O)N[C@@H](CCCNC(=N)N)C(=O)O | 0.4 | 708 nM | 282 nM | 
14 | CC(C)C[C@H](NC(=O)[C@@H]1CCCN1C(=O)[C@H](CCCCN)NC(=O)[C@@H](N)Cc1ccccc1)C(=O)N[C@@H](C)C(=O)N[C@@H](C)C(=O)N[C@H](C)C(=O)N[C@@H](CCCNC(=N)N)C(N)=O |  |  |  | EC50 ([2]; read-out: EC50): > 100000 nM
15 | CC(C)C[C@H](NC(=O)[C@@H]1CCCN1C(=O)[C@H](CCCCN)NC(=O)[C@@H](N)Cc1ccccc1)C(=O)N[C@@H](C)C(=O)N[C@@H](C)C(=O)N[C@H](C)C(=O)N[C@@H](CCCNC(=N)N)C(=O)O |  |  | 131000 nM | Activity [5]: inactive
16 | C[C@H](NC(=O)[C@H](C)NC(=O)[C@@H](NC(=O)[C@@H]1CCCN1C(=O)[C@H](CCCCN)NC(=O)[C@@H](N)Cc1ccccc1)[C@@H](C)O)C(=O)N[C@H](C)C(=O)N[C@@H](CCCNC(=N)N)C(=O)O | 7.8 | 895 nM | 7010 nM | 
17 | CC(C)C[C@H](NC(=O)[C@@H]1CCCN1C(=O)[C@H](CCCCN)NC(=O)[C@@H](N)Cc1ccccc1)C(=O)N[C@@H](C)C(=O)N[C@@H](C)C(=O)N[C@@H](C)C(=O)N[C@@H](CCCNC(=N)N)C(=O)O |  |  | 17300 nM | 
18 | CC[C@H](NC(=O)[C@H](C)NC(=O)[C@H](CC(C)C)NC(=O)[C@@H]1CCCN1C(=O)[C@H](CCCCN)NC(=O)[C@H](Cc1ccccc1)NC(C)=O)C(=O)N[C@H](C)C(=O)N[C@@H](CCCNC(=N)N)C(=O)O (Ac-FKPLA[Abu][dA]R-OH) | 2420 | 5.78 nM | 14500 nM | Activity (MDM [6]): Active; Activity [3]: inactive; Activity (Mus musculus): 41%; EC50 [4]: 2300 nM; Ratio EC50 [7]: 1000; Activity (MDM [8]): Active
19 | CC[C@@H](C)[C@@H](NC(=O)[C@H](C)NC(=O)[C@H](CC(C)C)NC(=O)[C@@H]1CCCN1C(=O)[C@H](CCCCN)NC(=O)[C@H](Cc1ccccc1)NC(C)=O)C(=O)N[C@@H](C)C(=O)N[C@@H](CCCNC(=N)N)C(=O)O | 214 | 1.54 nM | 429 nM | 
20 | CC(=O)N[C@@H](Cc1ccccc1)C(=O)N[C@@H](CCCCN)C(=O)N1CCC[C@H]1C(=O)N[C@@H](CC(C)C)C(=O)N[C@@H](C)C(=O)N[C@H](C(=O)N[C@H](C)C(=O)N[C@@H](CCCNC(=N)N)C(=O)O)[C@@H](C)O | 2050 | 34.1 nM | 69800 nM | 
21 | CC(=O)N[C@@H](Cc1ccccc1)C(=O)N[C@@H](CCCCN)C(=O)N1CCC[C@H]1C(=O)N[C@@H](CC(C)C)C(=O)N[C@@H](C)C(=O)N[C@@H](Cc1ccccc1)C(=O)N[C@H](C)C(=O)N[C@@H](CCCNC(=N)N)C(=O)O (Ac-FKPLAF[dA]R-OH) | 51.5 | 73.3 nM | 3760 nM | 
